From a melting point compilation (Tetko et al.; mined from patent text by program, amines drawn as free bases though some values may be those of a salt) come the findings set out here.

What is called melting point is the temperature, or range, at which the solid turns liquid. In the case of `Cc1cc(C(=O)O)cc(Cl)c1O`, the melting point lay in the range of 242 to 244 °C.

For the compound `CCCOc1cc2c(cc1OCCC)CCC(C(=O)N1CCN(C(=O)c3cc(OC)c(OC)c(OC)c3)CC1)=C2`, the melting point lay in the range of 124 to 126 °C.

Regarding `CCCc1c(OCCCCCCc2ccc(OCCCC(=O)O)cc2/C=C/C(=O)O)ccc2c1OCCC2=O`, the melting point was 140 to 143 °C.

Compound `C=CC[N+]([O-])(CCCCCCCCCCCCCCCCCC)CCCCCCCCCCCCCCCCCC` showed a melting point of 59 to 64 °C.

`CCCc1cc([N+](=O)[O-])cc2cc(C(=O)OCC)oc12`: the melting point amounted to 111 °C.

`O=C(NCC1CCCCC1)c1c(Cl)ccc2nc(CCCCc3nnn[nH]3)ccc12` registered a melting point of 90 to 93 °C.

In turn, `CSc1cc(SC)c2ccc3c(SC)cc(SC)c4ccc1c2c43` came in with a melting point of 275 to 280 °C.

`COc1cc(CO)cc(OC)c1OCCO` yielded a melting point of 26 to 28 °C.

The compound `Cc1c(CCC(=O)O)c2cc(Cl)ccc2n1Cc1ccc(Br)cc1` showed a melting point of 154 to 155 °C.

In the case of `O=C(NCc1cccnc1)c1ccnc(N2CCN(CC3CC3)C2=O)c1`, the melting point fell in the range of 122 to 123 °C.

`COc1ccc(CCC(=O)NCc2ccccc2)cc1` yielded a melting point of 92 to 94 °C.

Compound `CCOC(=O)c1c(C)nc(C)n1Cc1ccc2oc(-c3ccccc3-c3nnn(C(c4ccccc4)(c4ccccc4)c4ccccc4)n3)c(Br)c2c1` had a melting point of 98 to 100 °C.

Compound `CC(C)(C)OC(=O)N(O)C(=O)CN` had a melting point of 115 to 117 °C.

The compound `O=c1[nH]c2ccc(S(=O)(=O)NCCBr)cc2[nH]c1=O` returned a melting point of 261 to 266 °C.

The compound `COc1cccc(Cn2c(-c3ccccc3)nc(Cl)c2CC(=O)O)c1` displayed a melting point of 135 to 138 °C.

The compound `CCOC(=O)c1cnc2nc(C(F)(F)F)ccc2c1O` returned a melting point of more than 250 °C.

Turning to `NCCOCC(O)c1ccc2sccc2c1` (stereo not given), the melting point fell in the range of 87 to 90.5 °C.

`CC(=O)c1ccc2c(c1)Sc1cc(C(C)=O)ccc1O2` gave a melting point of 179 °C.

`CCS(=O)C1(Cl)CC2C(Cc3ccccc3)C(=O)N2C1C(=O)OCc1ccccc1` (stereo not given) gave a melting point of 118 to 123 °C.

In turn, `O=C1CCCCC1C(C[N+](=O)[O-])c1ccc(Cl)cc1` (racemic) yielded a melting point of 96 to 97 °C.

In turn, `Cc1cc2cc(CN3CCC(CC(N)=O)CC3)cnc2cc1NC(=O)c1ccc(-c2ccc(F)cc2)cc1` gave a melting point of 249 °C.

Turning to `CN1Cc2c(Cl)cccc2SCC1=O`, the melting point was 122 to 125 °C.

`OCCOCCOCCN1CCC(=C2c3ccccc3CC(O)c3sccc32)CC1` (stereo not given) registered a melting point of 110 to 113 °C.

On to `c1ccc(COc2ccc3[nH]c(-c4ccc[nH]4)cc3c2)cc1`, for which the melting point was 178 to 182 °C.

In turn, `Nc1ncnc2c(C3OC(CO)C(O)C3O)[nH]nc12` (stereo not given) showed a melting point of 141 to 142 °C.

Compound `CN(C)C=Cc1cccc(CC(=O)O)c1[N+](=O)[O-]` returned a melting point of 124 to 126 °C.

For `CCOC(=O)N1CCc2c(cnc3nc(/C=C4/C(=O)N5C(C(=O)O)=CS[C@H]45)nn23)C1`, the melting point is more than 250 °C.

`CCCCC1(CCCC)CCc2c(OCc3ccccn3)cccc2C1O` (stereo not given) yielded a melting point of 106 to 107 °C.

For the compound `COc1cn(-c2cc(N3CCCC3=O)ccc2F)nc(-c2ccnn2-c2ccccc2)c1=O`, the melting point was in the range of 171 to 174 °C.

Compound `CCCNC(=O)c1nc2n(n1)-c1ccc(Cl)cc1C(c1ccccc1Cl)=NC2` registered a melting point of 110 to 113 °C.

As for `CC(C)(C)NS(=O)(=O)c1ccccc1C(O)c1ccccc1` (stereo not given), the melting point came out at 160 °C.

Compound `N#CC(=Cc1ccc(Cl)cc1)c1c(Cl)cc(N2N=CCNC2=O)cc1Cl` came in with a melting point of 83 to 85 °C.

With `Cc1ccc2c(c1)SC(C(F)(F)F)C(C(=O)O)=C2` (stereo not given), the melting point is 187 to 192 °C.

`CCOP(=O)(OCC)C(Nc1nc2ccccc2s1)P(=O)(OCC)OCC` returned a melting point of 165 to 167 °C.

The compound `Cc1c(NC(=O)c2ccc(-c3ccc4c(c3)CCO4)cc2F)ccc2cc(CN3CCCC3)cnc12` showed a melting point of 181 to 182 °C.
